Measurements from patent US20190105367A1, “ANTIMICROBIAL 4-OXOQUINOLIZINES” (Emergent Product Development Gaithersburg Inc., priority 2011, published 2019).
In brackets after ≈: the same amount, converted by molar mass. Read-outs that look alike come from different tables or passages of the source.

How the values were obtained:
[1] = system: A. baumannii A329; test: Preliminary MBC without and with sub-inhibitory polymyxin B (Example 4); type: cell-based, Acinetobacter baumannii; details: Acinetobacter baumannii, A329, A. baumannii A329, +0.06 μg/ml PB, 2nd experiment, read-out: MBC
[2] = system: A. baumannii A401; test: as above; type: cell-based, Acinetobacter baumannii; details: Acinetobacter baumannii, A401, A baumannii A 401, +0.06 μg/ml PB, 2nd experiment, read-out: MBC
[3] = system: A. baumannii ATCC 19606; test: MIC without and with sub-inhibitory polymyxin B (Example 4); type: cell-based, Acinetobacter baumannii; details: for MIC without PB/MIC + PB: A. baumannii ATCC 19606; for MIC: Acinetobacter baumannii
[4] = system: A. baumannii A401; test: as above; type: cell-based, Acinetobacter baumannii; details: for MIC: Acinetobacter baumannii
[5] = system: A. baumannii A489; test: as above; type: cell-based, Acinetobacter baumannii
[6] = system: A. baumannii A390; test: as above; type: cell-based, Acinetobacter baumannii; details: +0.06 μg/ml PB, 2nd experiment
[7] = system: A. baumannii NCTC 13301; test: as above; type: cell-based, Acinetobacter baumannii
[8] = system: A. baumannii A387; test: as above; type: cell-based, Acinetobacter baumannii; details: for MIC without PB/MIC + PB: A. baumannii A387; for MIC: Acinetobacter baumannii
[9] = system: A. baumannii A472; test: as above; type: cell-based, Acinetobacter baumannii; details: for MIC: Acinetobacter baumannii
[10] = system: A. baumannii NCTC 13301; test: as above; type: cell-based, Acinetobacter baumannii; details: A. baumannii NCTC 13301; +[…] PB; 2nd experiment
[11] = system: A. baumannii J2; test: as above; type: cell-based, Acinetobacter baumannii; details: for MIC without PB/MIC + PB: A. baumannii J2; for MIC: Acinetobacter baumannii
[12] = system: Acinetobacter sp. (H064200250); test: Preliminary MBC without and with sub-inhibitory polymyxin B (Example 4); type: cell-based; details: Acinetobacter
Outline: (§1)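 Plates were incubated for 18-20 hours at 37° C. MBC was taken as the lowest concentration giving colony growth ca. 90% below the positive control, typically where only single colonies or none appeared.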

[13] = system: A. baumannii J2; test: as above; type: cell-based, Acinetobacter baumannii; details: Acinetobacter baumannii
[14] = system: A. baumannii A14; test: MIC without and with sub-inhibitory polymyxin B (Example 4); type: cell-based, Acinetobacter baumannii; details: 1st experiment
[15] = system: Acinetobacter sp. (H064200250); test: as above; type: cell-based; details: for MIC: Acinetobacter
[16] = system: A. baumannii A472; test: Preliminary MBC without and with sub-inhibitory polymyxin B (Example 4); type: cell-based, Acinetobacter baumannii; details: Acinetobacter baumannii
[17] = system: A. baumannii A387; test: as above; type: cell-based, Acinetobacter baumannii; details: Acinetobacter baumannii
[18] = system: A. baumannii ATCC 19606; test: as above; type: cell-based, Acinetobacter baumannii; details: Acinetobacter baumannii
[19] = system: A. baumannii NCTC 13301; test: as above; type: cell-based, Acinetobacter baumannii; details: Acinetobacter baumannii
Outline: as §1

[20] = system: A. baumannii A473; test: as above; type: cell-based, Acinetobacter baumannii; details: Acinetobacter baumannii, A473, A. baumannii A473, +0.06 μg/ml PB, 2nd experiment, read-out: MBC
Outline: as §1

[21] = system: A. baumannii A14; test: as above; type: cell-based, Acinetobacter baumannii; details: 2nd experiment
Outline: as §1

[22] = system: A. baumannii A390; test: as above; type: cell-based, Acinetobacter baumannii; details: Acinetobacter baumannii, A390, A. baumannii A390, +0.06 μg/ml PB, 2nd experiment, read-out: MBC
Outline: as §1

[23] = system: A. baumannii A473; test: MIC without and with sub-inhibitory polymyxin B (Example 4); type: cell-based, Acinetobacter baumannii; details: +0.06 μg/ml PB, 2nd experiment
[24] = ratio, PB 0.06 μg/ml, 1st experiment
[25] = A. baumannii A489, +[…] PB, 2nd experiment

Cc1c(-c2ccc(CN)cc2)c(F)cn2c(=O)c(C(=O)O)cc(C3CC3)c12 [Compound 6, 8-(4-aminomethyl-phenyl)-1-cyclopropyl-7-fluoro-9-methyl-4-oxo-quinolizine-3-carboxylic acid]
MBC [1]: 8 µg/mL (≈ 21.8 µM)
MBC [2]: 32 µg/mL (≈ 87.3 µM)
MIC without PB/MIC + PB ([3]; +0.06 μg/ml PB, 2nd experiment): 4
MIC without PB/MIC + PB [3, 24]: 8
MIC ([3]; ATCC19606, A. baumannii ATCC 19606, +0.06 μg/ml PB, 2nd experiment, read-out: MIC): 0.06 µg/mL (≈ 0.164 µM)
MIC ([3]; ATCC19606, read-out: MIC +0.06 μg/ml PB, A. baumannii ATCC 19606, +0.06 μg/ml polymyxin B, 1st experiment): 0.06 µg/mL
MIC without PB/MIC + PB ([4]; A baumannii A 401, ratio, PB 0.06 μg/ml, 1st experiment): 4
MIC ([4]; A401, A baumannii A 401, +0.06 μg/ml PB, 2nd experiment, read-out: MIC): 4 µg/mL (≈ 10.9 µM)
MIC ([4]; A401, read-out: MIC +0.06 μg/ml PB, A baumannii A 401, +0.06 μg/ml polymyxin B, 1st experiment): 4 µg/mL
MIC [5, 25]: 0.5 µg/mL (≈ 1.36 µM)
MIC without PB/MIC + PB [5, 25]: 8
MIC without PB/MIC + PB ([5]; A. baumannii A489, ratio, PB […], 1st experiment): 16
MIC ([5]; Acinetobacter baumannii, A489, read-out: MIC +[…] PB, A. baumannii A489, +[…] polymyxin B, 1st experiment): 0.5 µg/mL (≈ 1.36 µM)
MIC without PB/MIC + PB ([6]; A. baumannii A390): 8
MIC ([6]; Acinetobacter baumannii, A390, A. baumannii A390, read-out: MIC): 2 µg/mL (≈ 5.46 µM)
MIC without PB/MIC + PB ([7]; A. baumannii NCTC 13301, ratio, PB […], 1st experiment): 32
MIC ([7]; Acinetobacter baumannii, NCTC13301, read-out: MIC +[…] PB): 1 µg/mL (≈ 2.73 µM)
MIC without PB/MIC + PB ([8]; +0.06 μg/ml PB, 2nd experiment): 4
MIC without PB/MIC + PB [8, 24]: 8
MIC ([8]; A387, A. baumannii A387, +0.06 μg/ml PB, 2nd experiment, read-out: MIC): 1 µg/mL (≈ 2.73 µM)
MIC ([8]; A387, read-out: MIC +0.06 μg/ml PB, A. baumannii A387, +0.06 μg/ml polymyxin B, 1st experiment): 0.5 µg/mL
MIC without PB/MIC + PB ([9]; A. baumannii A472, ratio, PB […], 1st experiment): 16
MIC ([9]; A472): 1 µg/mL (≈ 2.73 µM)
MIC ([9]; A472, read-out: MIC +[…] PB, A. baumannii A472, +[…] polymyxin B, 1st experiment): 0.5 µg/mL (≈ 1.36 µM)
MIC without PB/MIC + PB [10]: 16
MIC without PB/MIC + PB ([11]; +[…] PB, 2nd experiment): 32
MIC without PB/MIC + PB ([11]; ratio, PB […], 1st experiment): 16
MIC ([11]; J2): 0.25 µg/mL (≈ 0.682 µM)
MIC ([11]; J2, read-out: MIC +[…] PB, A. baumannii J2, +[…] polymyxin B, 1st experiment): 1 µg/mL (≈ 2.73 µM)
MBC [12]: 1 µg/mL (≈ 2.73 µM)
MBC ([12]; read-out: MBC +[…] PB, Acinetobacter spp. H064200250, +[…] polymyxin B, preliminary MBC, 1st experiment): 4 µg/mL (≈ 10.9 µM)
MBC ([13]; J2): 0.25 µg/mL (≈ 0.682 µM)
MBC ([13]; J2, read-out: MBC +[…] PB, A. baumannii J2, +[…] polymyxin B, preliminary MBC, 1st experiment): 1 µg/mL (≈ 2.73 µM)
MIC +0.06 μg/ml PB ([14]; +0.06 μg/ml polymyxin B): 8 µg/mL
MIC without PB/MIC + PB ([14]; ratio, PB 0.06 μg/ml): 4
MIC [15]: 2 µg/mL (≈ 5.46 µM)
MIC without PB/MIC + PB ([15]; Acinetobacter spp. H064200250 (OXA51), +[…] PB, 2nd experiment): 8
MIC without PB/MIC + PB ([15]; Acinetobacter spp. H064200250, ratio, PB […], 1st experiment): 2
MIC ([15]; read-out: MIC +[…] PB, Acinetobacter spp. H064200250, +[…] polymyxin B, 1st experiment): 4 µg/mL (≈ 10.9 µM)
MBC ([16]; A472): 1 µg/mL (≈ 2.73 µM)
MBC ([16]; A472, read-out: MBC +[…] PB, A. baumannii A472, +[…] polymyxin B, preliminary MBC, 1st experiment): 0.5 µg/mL (≈ 1.36 µM)
MBC ([17]; A387, A. baumannii A387, +0.06 μg/ml PB, 2nd experiment, read-out: MBC): 1 µg/mL (≈ 2.73 µM)
MBC ([17]; A387, read-out: MBC +0.06 μg/ml PB, A. baumannii A387, +0.06 μg/ml polymyxin B, 1st experiment): 0.5 µg/mL
MBC ([18]; ATCC19606, A. baumannii ATCC 19606, +0.06 μg/ml PB, 2nd experiment, read-out: MBC): 0.06 µg/mL (≈ 0.164 µM)
MBC ([18]; ATCC19606, read-out: MBC +0.06 μg/ml PB, A. baumannii ATCC 19606, +0.06 μg/ml polymyxin B, 1st experiment): 0.06 µg/mL
MBC ([19]; NCTC13301): 2 µg/mL (≈ 5.46 µM)
MBC ([19]; NCTC13301, read-out: MBC +[…] PB): 4 µg/mL (≈ 10.9 µM)
MBC [20]: 2 µg/mL (≈ 5.46 µM)
MBC ([21]; A. baumannii A14, +0.06 μg/ml PB): 8 µg/mL (≈ 21.8 µM)
MBC ([21]; Acinetobacter baumannii, A14, A. baumannii A14, without PB, read-out: MBC): 16 µg/mL (≈ 43.7 µM)
MBC [22]: 2 µg/mL (≈ 5.46 µM)
MIC without PB/MIC + PB ([23]; A. baumannii A473): 4
MIC ([23]; Acinetobacter baumannii, A473, A. baumannii A473, read-out: MIC): 2 µg/mL (≈ 5.46 µM)
